Measured values reported in patent US20180327367A1, “MACROCYCLIC BROAD SPECTRUM ANTIBIOTICS” (priority 2015, published 2018).
≈ marks a conversion by molar mass, not a printed value. Where two headings read alike, the source gives them in different places.

Legend:
[1] = test system: Escherichia coli ATCC 25922; experiment: Minimum inhibitory concentration, broth micro-dilution (CLSI), E. coli; format: cell-based; conditions: Escherichia coli, ATCC25922, 22 h
[2] = test system: Escherichia coli strain ATCC 25922; experiment: Neutropenic thigh infection model; format: in vivo; conditions: neutropenic CD-1 mice, E. coli ATCC 25922, infusion 23 hours, 24 hours post infection, FIG. 1
Procedure: The ability of a compound to inhibit an infection of a bacterial pathogen can be measured using a murine neutropenic thigh infection model. The reduction of bacterial burden is a measure of antibacterial activity in vivo.
Jugular vein cannulated CD-1 mice were subjected to induced neutropenia (<100 cells/mm^3) by injecting 150 mg/kg and 100 mg/kg cyclophosphamide at day −5 and day −2 respectively. At day −1, saline was infused at […] for 12 hours using Harvard Apparatus PHD 2000 Infusion pumps. At day 0, mice were infected in the thigh muscle with 1×10^5 CFU/50 μL of Escherichia coli strain ATCC 25922. […]
At 24 hours post infection, bacterial burden in the thigh muscle was determined by plating the tissue homogenate in serial dilutions on blood agar plates.

[3] = test system: Methicillin Resistant Staphylococcus aureus strain USA 300, NRS384; experiment: Minimum inhibitory concentration, broth micro-dilution (CLSI), S. aureus; format: cell-based; conditions: Staphylococcus aureus, MRSA / NRS 384 / USA300, 22 h
Method in brief: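 CLSI broth microdilution in cation-adjusted Mueller Hinton Broth with 0.002% Tween-80; inoculum final OD600 0.0005, 22 hours at 35° C. Ten 2-fold dilutions starting at 4 μg/mL (protocol 2) or 0.5 μg/mL (protocol 3).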

[4] = test system: Escherichia coli MC4100 harboring the IMP4213 (E. coli IMP); experiment: microbe, parasite or virus in culture; format: cell-based; conditions: Escherichia coli, 22 h
Method in brief: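 Top conc 4 μg/mL (protocol 2) or 0.5 μg/mL (protocol 3), 2-fold series, 10 points. Final OD600 0.0005; 22 h, 35° C. IMP4213 = permeable outer membrane.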

[5] = target: T1, SpsB (Staphylococcus aureus signal peptidase) (Staphylococcus aureus, UniProt P0A070); experiment: cell-based; format: biochemical; conditions: SpsB IC50, whole-cell S. aureus (USA300 background, overexpressing SpsB) as SpsB source; fluorogenic peptide substrate, kinetic read 30 min
T1 construct: This assay uses a suspension of Staphylococcus aureus cells as a source of SpsB instead of recombinant SpsB protein; endogenous in cells; host or cells: S. aureus, USA300 background, overexpressing SpsB (whole-cell suspension from frozen pellets)
T1 sequence (P0A070 whole entry): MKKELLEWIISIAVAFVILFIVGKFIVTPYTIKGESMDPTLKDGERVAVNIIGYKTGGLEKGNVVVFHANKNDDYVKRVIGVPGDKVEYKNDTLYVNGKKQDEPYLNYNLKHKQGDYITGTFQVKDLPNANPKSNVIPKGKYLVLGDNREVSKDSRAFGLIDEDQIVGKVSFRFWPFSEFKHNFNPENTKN
Method in brief: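 Cleavage of an internally quenched (Dabcyl)βAla-KPAKAAE(Edans) peptide, added as 20 μM solution mixed 1:1 with cells, was followed for 30 min at 340/490 nm. SpsB came from a suspension of SpsB-overexpressing USA300 S. aureus in Tween-80-containing PBS buffer. Slopes plotted against 3-fold compound dilutions gave IC50.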

[6] = E. coli ATCC 25922, 35° C., 22 hours, read-out: MIC (μg/mL) E. coli
[7] = MRSA USA 300 NRS384, 35° C., 22 hours, read-out: MIC (μg/mL) S. aureus
[8] = read-out: MIC (μg/mL) E. coli IMP, E. coli MC4100 IMP4213, increased outer-membrane permeability, 35° C., 22 hours
[9] = read-out: MIC (μg/mL) E. coli, E. coli ATCC 25922, 35° C., 22 hours
[10] = read-out: MIC (μg/mL) S. aureus, MRSA USA 300 NRS384, 35° C., 22 hours

With CCCCc1ccc(-c2ccc(C(=O)N[C@@H](CCCN)C(=O)N(C)[C@@H]3C(=O)N[C@@H](C)C(=O)N[C@H](C(=O)NCC#N)Cc4ccc(OCCN)c(c4)-c4cc3ccc4OCCN)cc2)cc1 [Compound 135] the MIC [1, 6] was 0.22 µg/mL (≈ 0.248 µM), the “bacterial burden in the thigh muscle” value [2] was “dose-dependent reduction in bacterial burden” and the MIC [3, 7] was 0.052 µg/mL (≈ 0.0586 µM). The MIC [4, 8] was 0.023 µg/mL (≈ 0.0259 µM) and the IC50 [5] was 0.54 nM.

For CCCCCCc1ccc(C(=O)N2C[C@@H](N)CC2C(=O)N(C)[C@@H]2C(=O)N[C@@H](C)C(=O)N[C@H](C(=O)NCC#N)Cc3ccc(OCCN)c(c3)-c3cc2ccc3OCCN)c(C)c1 (some centres unmarked) [Compound 480], the MIC [1, 6] was 0.5 µg/mL (≈ 0.587 µM), the MIC [3, 7] was 0.19 µg/mL (≈ 0.223 µM) and the MIC [4, 8] was 0.012 µg/mL (≈ 0.0141 µM). For the same compound, the IC50 [5] was 0.92 nM.

With CCCCCCCCCCCCCC(=O)N1C[C@@H](N)CC1C(=O)N(C)[C@@H]1C(=O)N[C@@H](C)C(=O)N[C@H](C(=O)NCC#N)Cc2ccc(OCCN)c(c2)-c2cc1ccc2OCCN (some centres unmarked) [Compound 481] the MIC [1, 6] was 0.25 µg/mL (≈ 0.291 µM), the MIC [3, 7] was 0.047 µg/mL (≈ 0.0546 µM) and the MIC [4, 8] was 0.0078 µg/mL (≈ 0.00907 µM). The IC50 [5] was 1.2 nM.

C[C@@H]1NC(=O)[C@@H](N(C)C(=O)[C@H](CCCCN)NC(=O)c2ccc(-c3ccc(Cl)cc3)cc2)c2ccc(OCCN)c(c2)-c2cc(ccc2OCCN)C[C@@H](C(=O)NCC#N)NC1=O [Compound 482] gave an MIC [1, 9] of 16 µg/mL (≈ 18.2 µM), an MIC [3, 10] of 0.13 µg/mL (≈ 0.148 µM) and an MIC [4, 8] of 0.13 µg/mL (≈ 0.148 µM). For the same compound, the IC50 [5] was 1.6 nM.

Compound C[C@@H]1NC(=O)[C@@H](N(C)C(=O)[C@H](CCCCN)NC(=O)c2ccc(-c3ccc(Cl)cc3)cc2)c2ccc(OCCN)c(c2)-c2cc(ccc2OCCN)C[C@@H](C(=O)N[C@@H](C)C#N)NC1=O [Compound 483] has an MIC [1, 9] of 48 µg/mL (≈ 53.7 µM), an MIC [3, 10] of 2 µg/mL (≈ 2.24 µM) and an MIC [4, 8] of 0.5 µg/mL (≈ 0.559 µM). The IC50 [5] was 6.8 nM.

In the case of CCCCCCCCCCCC(=O)N[C@@H](C[C@@H]1CCCN1)C(=O)N(C)[C@@H]1C(=O)N[C@@H](C)C(=O)N[C@H](C(=O)NCC#N)Cc2ccc(OCCN)c(c2)-c2cc1ccc2OCCN [Compound 484], the MIC [1, 6] is reported as 8 µg/mL (≈ 9.3 µM), the MIC [3, 7] is reported as 0.063 µg/mL (≈ 0.0732 µM) and the MIC [4, 8] is reported as 0.063 µg/mL (≈ 0.0732 µM). It also gave an IC50 [5] of 1 nM.

CCCCc1ccc(-c2ccc(C(=O)N[C@@H](CCCCN)C(=O)N(C)[C@@H]3C(=O)N[C@@H](C)C(=O)N[C@H](C(=O)NC4(C#N)CC4)Cc4ccc(OCCN)c(c4)-c4cc3ccc4OCCN)cc2)cc1 [Compound 494] showed an MIC [1, 6] of 16 µg/mL (≈ 17.2 µM), an MIC [3, 7] of 1 µg/mL (≈ 1.08 µM) and an MIC [4, 8] of 0.5 µg/mL (≈ 0.539 µM). For the same compound, the IC50 [5] was 2.1 nM.

Compound CCCCc1ccc(-c2ccc(C(=O)N[C@@H](CCCCN)C(=O)N(C)[C@@H]3C(=O)N[C@@H](C)C(=O)N[C@H](C(=O)NC4(C#N)CC4)Cc4ccc(O)c(c4)-c4cc3ccc4OCCN)cc2)cc1 [Compound 495] has an MIC [1, 6] of 16 µg/mL (≈ 18.1 µM), an MIC [3, 7] of 3 µg/mL (≈ 3.39 µM) and an MIC [4, 8] of 1 µg/mL (≈ 1.13 µM). It also gave an IC50 [5] of 20 nM.

For CCCCc1ccc(-c2ccc(C(=O)N[C@@H](CCCCN)C(=O)N(C)[C@@H]3C(=O)N[C@@H](C)C(=O)N[C@H](C(=O)NC(C)(C)C#N)Cc4ccc(OCCN)c(c4)-c4cc3ccc4OCCN)cc2)cc1 [Compound 496], the MIC [1, 6] was 16 µg/mL (≈ 17.2 µM), the MIC [3, 7] was 3 µg/mL (≈ 3.23 µM) and the MIC [4, 8] was 0.5 µg/mL (≈ 0.538 µM). For the same compound, the IC50 [5] was 17 nM.

CCCCc1ccc(-c2ccc(C(=O)N[C@@H](CCCN)C(=O)N(C)[C@@H]3C(=O)N[C@@H](C)C(=O)N[C@H](C(=O)N4CC4C#N)Cc4ccc(OCCN)c(c4)-c4cc3ccc4OCCN)cc2)cc1 (some centres unmarked) [Compound 520] gave an MIC ([1]; read-out: MIC (μg/mL) E. coli) of 6 µg/mL (≈ 6.67 µM), an MIC ([3]; read-out: MIC (μg/mL) S. aureus) of 0.38 µg/mL (≈ 0.422 µM) and an MIC ([4]; read-out: MIC (μg/mL) E. coli IMP) of 0.19 µg/mL (≈ 0.211 µM). The IC50 [5] was 0.73 nM.
